This passage reports TGI results from PubChem BioAssay (NCI).

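Interpolation was linear, between the two tested concentrations surrounding the appropriate level; five concentrations were tested over 48 hours in 96-well plates. TGI marks complete inhibition of growth.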

Some test systems named below: MDA-N; SK-MEL-2 melanoma; MDA-MB-231 breast; PC-3 prostate; T-47D breast; TK-10 renal; RPMI-8226 leukemia; A498 renal; OVCAR-3 ovarian; NCI-H460 lung; HOP-62 NSCLC; HCT-116 colon; NCI-H226 lung; KM12 colon; OVCAR-8 ovarian.
Common to all, as to assay: NCI-60 cell line screen, 48 h

As for `Fc1cc(C2=Nn3c(CNc4ccc(Cl)cc4)nnc3S/C2=C\c2ccc(-c3ccc(Cl)cc3)o2)c(Cl)cc1Cl`, the TGI with MDA-N was above 100 µM; in the assay with SK-MEL-2 melanoma it was above 100 µM; in the assay with MDA-MB-231 breast, 32.2 µM; in the assay on PC-3 prostate, 51 µM; in the assay with T-47D breast it was above 100 µM; in the assay on TK-10 renal, above 100 µM. Also, the TGI in the assay with RPMI-8226 leukemia is 79.1 µM; in the assay with A498 renal, 65.6 µM; in the assay on OVCAR-3 ovarian it was above 100 µM; with NCI-H460 lung it was above 100 µM; in the assay on HOP-62 NSCLC it was 91.6 µM; with HCT-116 colon it was above 100 µM. Moreover, the TGI in the assay on NCI-H226 lung, with KM12 colon and with OVCAR-8 ovarian was above 100 µM each time.

For `CC(C)(C)C(O)CC(O)(C(F)(F)F)C(F)(F)F` (stereo not given), the TGI in the assay with MDA-N, in the assay on SK-MEL-2 melanoma, with MDA-MB-231 breast, in the assay on PC-3 prostate, in the assay on T-47D breast and with TK-10 renal was above 100 µM each time. In addition, the TGI in the assay with RPMI-8226 leukemia, in the assay with A498 renal, in the assay with OVCAR-3 ovarian, with NCI-H460 lung, with HOP-62 NSCLC and in the assay with HCT-116 colon was above 100 µM in each case. In addition, the TGI with NCI-H226 lung, in the assay with KM12 colon and in the assay on OVCAR-8 ovarian was above 100 µM each time.

Take `Cc1cccc2c(N)c3cccc(C(=O)NCC[N+](C)(C)Cc4ccc(S(C)(=O)=O)cc4)c3nc12`: the TGI with MDA-N, in the assay on SK-MEL-2 melanoma, with MDA-MB-231 breast, in the assay on PC-3 prostate, with T-47D breast and in the assay on TK-10 renal was above 100 µM in each case. Further, the TGI in the assay with RPMI-8226 leukemia was above 45.4 µM; in the assay with A498 renal, 65 µM; with OVCAR-3 ovarian, above 100 µM; in the assay on NCI-H460 lung it was above 100 µM; in the assay with HOP-62 NSCLC, above 100 µM; with HCT-116 colon, above 100 µM. Besides, the TGI in the assay on NCI-H226 lung, in the assay with KM12 colon and in the assay with OVCAR-8 ovarian was above 100 µM each time.

As for `CCOC(CN(C)C(=O)Nc1ccc(Cl)c(Cl)c1)OCC`, the TGI in the assay with MDA-N, in the assay on SK-MEL-2 melanoma, in the assay with MDA-MB-231 breast, in the assay with PC-3 prostate, in the assay with T-47D breast and in the assay on TK-10 renal was above 10 µM throughout. Moreover, the TGI in the assay on RPMI-8226 leukemia, in the assay on A498 renal, with OVCAR-3 ovarian, in the assay with NCI-H460 lung, in the assay with HOP-62 NSCLC and with HCT-116 colon was above 10 µM in each case. Further, the TGI in the assay on NCI-H226 lung, in the assay on KM12 colon and in the assay with OVCAR-8 ovarian was above 10 µM each time.

For `CCCCCCCCCC(=O)NCCc1c[nH]c2ccc(OC)cc12`, the TGI with MDA-N worked out at 35.5 µM; in the assay with SK-MEL-2 melanoma it was 30.5 µM; with MDA-MB-231 breast, 30.9 µM; in the assay with PC-3 prostate it was 28.9 µM; in the assay with T-47D breast, 54 µM; with TK-10 renal, 35.1 µM. The TGI came to 67 µM in the assay with RPMI-8226 leukemia; 29.9 µM with A498 renal; 30.3 µM with OVCAR-3 ovarian; 50.1 µM in the assay with NCI-H460 lung; 31.1 µM in the assay with HOP-62 NSCLC; 43.5 µM in the assay with HCT-116 colon. Also, the TGI was 42.1 µM in the assay on NCI-H226 lung, above 100 µM with KM12 colon and 32 µM in the assay with OVCAR-8 ovarian.

On to `COc1cccc(C2c3cc4c(cc3OC(NNC(N)=O)C2C)OCO4)c1O` (stereo not given), for which the TGI is 0.653 µM with MDA-N; 44.2 µM in the assay on SK-MEL-2 melanoma; above 59.8 µM with MDA-MB-231 breast; above 100 µM in the assay with PC-3 prostate; above 100 µM in the assay on T-47D breast; above 75.5 µM in the assay on TK-10 renal. The TGI with RPMI-8226 leukemia is above 100 µM; in the assay with A498 renal it was 42.4 µM; with OVCAR-3 ovarian, 29.6 µM; with NCI-H460 lung, above 26.4 µM; in the assay on HOP-62 NSCLC, 54 µM; in the assay with HCT-116 colon, above 38.9 µM. The TGI in the assay on NCI-H226 lung was 9.4 µM; in the assay with KM12 colon, above 79.2 µM; in the assay with OVCAR-8 ovarian it was above 33.8 µM.

As for `CCN(CC)C(=S)/N=C(\SC(=S)N(CC)CC)c1ccccc1`, the TGI in the assay with MDA-N is above 73.2 µM; in the assay with SK-MEL-2 melanoma, above 100 µM; in the assay with MDA-MB-231 breast, above 25.7 µM; in the assay with PC-3 prostate, above 100 µM; in the assay with T-47D breast, above 100 µM; in the assay with TK-10 renal, above 100 µM. Moreover, the TGI is above 96.1 µM in the assay with RPMI-8226 leukemia; above 100 µM in the assay with A498 renal; above 100 µM in the assay on OVCAR-3 ovarian; above 100 µM in the assay with NCI-H460 lung; above 83.2 µM in the assay with HOP-62 NSCLC; 20.9 µM in the assay on HCT-116 colon. The TGI with NCI-H226 lung is above 100 µM; with KM12 colon, above 44.1 µM; with OVCAR-8 ovarian, above 100 µM.

In the case of `CC1(C)CCCC2CC2CCC(C)(C)C1=O` (stereo not given), the TGI in the assay with MDA-N, with SK-MEL-2 melanoma, in the assay with MDA-MB-231 breast, in the assay with PC-3 prostate, with T-47D breast and in the assay on TK-10 renal was above 100 µM throughout. Besides, the TGI in the assay on RPMI-8226 leukemia is 68.1 µM; in the assay on A498 renal, above 100 µM; in the assay on OVCAR-3 ovarian it was 82.7 µM; in the assay on NCI-H460 lung, above 100 µM; in the assay on HOP-62 NSCLC it was above 100 µM; in the assay on HCT-116 colon, above 100 µM. Also, the TGI with NCI-H226 lung, in the assay on KM12 colon and in the assay on OVCAR-8 ovarian was above 100 µM throughout.

Regarding `Brc1c2c(c(Br)c3nsnc13)N=S=N2`, the TGI in the assay on MDA-N is above 73 µM; in the assay on SK-MEL-2 melanoma, 51 µM; in the assay with MDA-MB-231 breast, 60.7 µM; in the assay on PC-3 prostate it was above 100 µM; with T-47D breast, above 66.6 µM; with TK-10 renal, 47.3 µM. For the same compound, the TGI was 78.1 µM in the assay on RPMI-8226 leukemia; above 96.4 µM in the assay with A498 renal; 68.6 µM in the assay on OVCAR-3 ovarian; above 69.3 µM in the assay on NCI-H460 lung; 15.9 µM in the assay with HOP-62 NSCLC; above 69.2 µM with HCT-116 colon. The values for the TGI with NCI-H226 lung, in the assay with KM12 colon and in the assay with OVCAR-8 ovarian were above 76.6 µM, above 100 µM and 79.7 µM, respectively.
